Assay results from article PMC6265310, “Purification, Characterization and in vitro Evaluation of Polymyxin A From Paenibacillus dendritiformis: An Underexplored Member of the Polymyxin Family” (Frontiers in Microbiology, 2018).
≈ marks a conversion by molar mass, not a printed value. Where a SMILES comes first, the peptide text is derived from it. Bridges are numbered along the chain shown (N, C = ends). [ ]: non-standard residue; d: D form. The star is where a group is joined. X1 = CC[C@H](C)CCCCC(=O)*; dDab = NCC[C@@H](N)C(=O)O; Dab = NCC[C@H](N)C(=O)O

Legend:
A. baumannii GMCH 14 = conditions: GMCH 14
[1] = test system: Klebsiella pneumoniae ATCC 29665; conditions: Klebsiella pneumoniae ATCC 29665
P. aeruginosa PA2 = conditions: PA2
[2] = test system: Klebsiella pneumoniae ATCC- BAA 2146; conditions: Klebsiella pneumoniae ATCC- BAA 2146
A. baumannii AB1 = conditions: AB1
[3] = test system: Bacillus subtilis ATCC 6633; conditions: Bacillus subtilis ATCC 6633
E. coli 3185 = conditions: 3185
E. coli 13425 = conditions: 13425
K. Pneumoniae GMCH04 = conditions: GMCH04
K. Pneumoniae 1573 = conditions: 1573
A. baumannii GMCH18 = conditions: GMCH18
P. aeruginosa GMCH06 = conditions: GMCH06
P. aeruginosa PA4 = conditions: PA4
E. coli 9062 = conditions: 9062
P. aeruginosa PA1 = conditions: PA1
K. Pneumoniae GMCH10 = conditions: GMCH10
K. Pneumoniae GMCH11 = conditions: GMCH11
E. coli 7932 = conditions: 7932
K. Pneumoniae GMCH12 = conditions: GMCH12
[4] = test system: Vibrio parahaemolyticus ATCC17802
P. aeruginosa PA3 = conditions: PA3
[5] = test system: Staphylococcus aureus ATCC 25923; conditions: Staphylococcus aureus ATCC 25923
K. Pneumoniae GMCH13 = conditions: GMCH13
E. coli 7534 = conditions: 7534
[6] = test system: Klebsiella pneumoniae ATCC 700603; conditions: Klebsiella pneumoniae ATCC 700603
[7] = test system: Klebsiella pneumoniae ATCC BAA1706; conditions: Klebsiella pneumoniae ATCC BAA1706
K. Pneumoniae 1428 = conditions: 1428
[8] = test system: Escherichia coli ATCC 35218; conditions: Escherichia coli ATCC 35218
A. baumannii AB2 = conditions: AB2
[9] = test system: Acinetobacter baumannii ATCC 19606; conditions: Acinetobacter baumannii ATCC 19606; Ca-MHB, 37°C, 20–24 h
[10] = test system: Enterococcus faecalis ATCC 51299; conditions: Enterococcus faecalis ATCC 51299
K. Pneumoniae B8 = conditions: B8
E. coli 14504 = conditions: 14504
[11] = test system: Pseudomonas aeruginosa ATCC 27853; conditions: Pseudomonas aeruginosa ATCC 27853
K. Pneumoniae GMCH 16 = conditions: GMCH 16
[12] = test system: Vibrio cholerae MTCC 3906
E. coli 7210 = conditions: 7210
E. coli 14084 = conditions: 14084
E. coli 14363 = conditions: 14363
P. aeruginosa PA5 = conditions: PA5
[13] = test system: Escherichia coli ATCC 25922; conditions: Escherichia coli ATCC 25922
[14] = test system: human leukemic monocyte cell line (THP-1 ATCC TIB-202); format: cell-based
Protocol: (§1) 3-(4,5-dimethylthiazol-2-yl)-2,5-diphenyltetrazolium bromide (MTT) assay was employed to examine the cytotoxicity against human leukemic monocyte cell line (THP-1 ATCC TIB-202) and human embryonic kidney cell line (HEK293 ATCC CRL-1573) as explained by [Kaur et al. (2017)]. Toxicity of both compounds was compared with polymyxin B and colistin at concentrations ranging from 62.5 to1000 μg/ml.

[15] = test system: human embryonic kidney cell line (HEK293 ATCC CRL-1573); format: cell-based
Protocol: as §1

K. Pneumoniae 827 = conditions: 827
P. aeruginosa PA6 = conditions: PA6
A. baumannii GMCH05 = conditions: GMCH05

CC[C@H](C)CCCCC(=O)N[C@@H](CCN)C(=O)N[C@H](C(=O)N[C@H](CCN)C(=O)N[C@H]1CCNC(=O)[C@H]([C@@H](C)O)NC(=O)[C@H](CCN)NC(=O)[C@H](CCN)NC(=O)[C@H]([C@@H](C)O)NC(=O)[C@@H](CC(C)C)NC(=O)[C@H](CCN)NC1=O)[C@@H](C)O [P2, polymyxin A1] (X1-[Dab]T[dDab][Dab][Dab][dL]T[Dab][Dab]T; lactam 4-C)
MIC (A. baumannii GMCH 14): 1 µg/mL (≈ 0.864 µM)
MIC [1]: 1 µg/mL (≈ 0.864 µM)
MIC (P. aeruginosa PA2): 2 µg/mL (≈ 1.73 µM)
MIC [2]: 1 µg/mL (≈ 0.864 µM)
MIC (A. baumannii AB1): 1 µg/mL (≈ 0.864 µM)
MIC [3]: 8 µg/mL (≈ 6.91 µM)
MIC (E. coli 3185): 0.5 µg/mL (≈ 0.432 µM)
MIC (E. coli 13425): 1 µg/mL (≈ 0.864 µM)
MIC (K. Pneumoniae GMCH04): 0.5 µg/mL (≈ 0.432 µM)
MIC (K. Pneumoniae 1573): 0.5 µg/mL (≈ 0.432 µM)
MIC (A. baumannii GMCH18): 0.5 µg/mL (≈ 0.432 µM)
MIC (P. aeruginosa GMCH06): 1 µg/mL (≈ 0.864 µM)
MIC (P. aeruginosa PA4): 1 µg/mL (≈ 0.864 µM)
MIC (E. coli 9062): 1 µg/mL (≈ 0.864 µM)
MIC (P. aeruginosa PA1): 2 µg/mL (≈ 1.73 µM)
MIC (K. Pneumoniae GMCH10): 1 µg/mL (≈ 0.864 µM)
MIC (K. Pneumoniae GMCH11): 1 µg/mL (≈ 0.864 µM)
MIC (E. coli 7932): 1 µg/mL (≈ 0.864 µM)
MIC (K. Pneumoniae GMCH12): 1 µg/mL (≈ 0.864 µM)
MIC [4]: 1 µg/mL (≈ 0.864 µM)
MIC (P. aeruginosa PA3): 2 µg/mL (≈ 1.73 µM)
MIC [5]: >16 µg/mL
MIC (K. Pneumoniae GMCH13): 0.5 µg/mL (≈ 0.432 µM)
MIC (E. coli 7534): 0.5 µg/mL (≈ 0.432 µM)
MIC [6]: 1 µg/mL (≈ 0.864 µM)
MIC [7]: 1 µg/mL (≈ 0.864 µM)
MIC (K. Pneumoniae 1428): 2 µg/mL (≈ 1.73 µM)
MIC [8]: 0.5 µg/mL (≈ 0.432 µM)
MIC (A. baumannii AB2): 1 µg/mL (≈ 0.864 µM)
MIC [9]: 1 µg/mL (≈ 0.864 µM)
MIC [10]: >16 µg/mL
MIC (K. Pneumoniae B8): 1 µg/mL (≈ 0.864 µM)
MIC (E. coli 14504): 0.5 µg/mL (≈ 0.432 µM)
MIC [11]: 1 µg/mL (≈ 0.864 µM)
MIC (K. Pneumoniae GMCH 16): 0.5 µg/mL (≈ 0.432 µM)
MIC [12]: 8 µg/mL (≈ 6.91 µM)
MIC (E. coli 7210): 1 µg/mL (≈ 0.864 µM)
MIC (E. coli 14084): 0.5 µg/mL (≈ 0.432 µM)
MIC (E. coli 14363): 0.5 µg/mL (≈ 0.432 µM)
MIC (P. aeruginosa PA5): 2 µg/mL (≈ 1.73 µM)
MIC [13]: 1 µg/mL (≈ 0.864 µM)
IC50 [14]: 500 µg/mL (≈ 432 µM)
toxicity ranking against HEK cells [15]: highest toxicity among four compounds
MIC (K. Pneumoniae 827): 1 µg/mL (≈ 0.864 µM)
MIC (P. aeruginosa PA6): 2 µg/mL (≈ 1.73 µM)
MIC (A. baumannii GMCH05): 1 µg/mL (≈ 0.864 µM)
